Source: patent US6756362B2, “Methods and compositions based on inhibition of cell invasion and fibrosis by anionic polymers” (priority 1991, dated 2004)

How the values were obtained:
[1] = test system: rat meningeal fibroblasts (RMF); test: Stripe assay, RMF; format: cell-based; set-up: key: Bands that were completely inhibitory to cell adhesion, migration and/or invasion were evaluated as (−); those allowing limited cell adhesion, migration and/or invasion (+/−); those permissive to cell adhesion, migration and/or invasion as (+); details: for DS-PG Effect on Adhesion, Migration and Invasion: 2 days following plating
Description: (§1) Primary Cell Cultures. Primary cultures of rat meningeal fibroblasts (RMF) were obtained from P-3 rat pups. The tissue was removed from the animals and transferred to Leibovitz's L-15 with L-glutamine medium. The tissue was then cut into small pieces with a scalpel blade, enzymatically dissociated with 0.25% trypsin in Ca^2+/Mg^2+ free Hank's balanced salt solution (CMF-HBSS, Gibco Laboratories) for 20 minutes at 37° C., and mechanically triturated. The cells were rinsed with DMEM plus 10% FCS, concentrated by centrifugation and subsequently diluted in DMEM with 10% FCS for plating at 5.0×10^6 cells per 75 cm^2 flask. Adult rat sciatic nerve fibroblasts (RSF) were obtained by explantation of 1 mm sections of adult rat sciatic nerve.
(§2) The stripe assay was performed essentially as described by Snow et al. (1990, Exp. Neural. 309:111-130). Tissue culture Petri dishes (Falcon, 60 mm) were precoated with 0.5 ml of a mixture of 5 cm^2 section nitrocellulose (Schleicher & Schuell, Type BA 85) dissolved in 6 ml methanol, and air dried in a laminar flow hood. Cellulose filter paper (Whatman #1) was cut into 12×0.35 mm strips with a McIlwain tissue chopper (The Mickle Laboratory Engineering Co., LTD). A strip of filter paper was soaked in 20 μl of a solution of DS-PG or KS/CS-PG and LN at given concentration, blotted onto the nitrocellulose-coated dish for 30 sec. and removed. The test solution was allowed to air dry. This process was repeated several times creating clearly defined, equally spaced parallel bands of uniform width on the plates. A thin layer of 0.1 or 1 mg/ml LN was then spread evenly across the bands with a bent glass Pasteur pipet, and covered with culture medium (FIG. 1).
(§3) Plates were seeded with cell suspensions of 2.0×10^5 cells/ml or 4-10 DRG explants. The cultures were assessed for degree of adhesion, migration and/or invasion of the DS-PG or KS/CS-PG bands over a period of up to 7 days using a Leitz Fluovert microscope.
(§4) Bands that were completely inhibitory to cell adhesion, migration and/or invasion were evaluated as (−), those allowing limited cell adhesion, migration and/or invasion (+/−), and those permissive to cell adhesion, migration and/or invasion as (+). cell adhesion was defined as the initial interaction between the cell surface and the substratum which results in cell attachment and spreading. Cell migration was operationally defined as cell movement within the same substratum, and cell invasion was operationally defined as cell movement from one type of substratum to another type of substratum.

[2] = test system: dorsal root ganglia (DRG) explants; test: Stripe assay, DRG explants; format: cell-based, chick; set-up: key: Bands that were completely inhibitory to cell adhesion, migration and/or invasion were evaluated as (−); those allowing limited cell adhesion, migration and/or invasion (+/−); those permissive to cell adhesion, migration and/or invasion as (+); details: for DS-PG Effect on Adhesion, Migration and Invasion: 2 days following plating
Description: (§5) Primary Explant Cultures. Dorsal root ganglia (DRGs) were obtained from E8-E9 chick embryos. The dissection was carried out in CMF-HBSS. The spinal cord was exposed and DRGs were removed and cleaned from surrounding connective tissue. DRGs were plated in DMEM/F12, 10% fetal calf serum containing 50 ng/ml nerve growth factor (NGF). The DRGs were seeded on laminin (LN, Gibco Laboratories) or poly-L-lysine (PLL, Sigma) coated dishes.
as §2, §3, §4

[3] = test system: DRG explants, neuronal and non-neuronal cell migration; test: Explant outgrowth assay; format: cell-based, chick
Description: as §5
The relative outgrowth, compared to outgrowth of untreated controls, was rated as follows: 1: 0-19% of control; 2: 20-39% of control; 3: 40-59% of control; 4: 60-79% of control; 5: 80-100% of control.
The effect of heparin and dextran sulfate on cell migration from explant cultures of chick DRGs was tested. DRGs were plated in culture dishes precoated with a substratum of either PLL or LN and grown in culture medium containing different concentrations of heparin, dextran sulfate or dextran solutions. In the absence of a test compound, within 24-48 hours a halo of neuritic outgrowth and migrating non-neuronal cells, i.e., fibroblasts and Schwann cells, was evident around the ganglia (FIG. 6A). The size of the cellular halo migrating from the DRG explant was reduced when the explant was grown in the presence of 0.4 mg/ml heparin (FIG. 6B). […] In contrast, 0.4 mg/ml dextran had no effect (FIG. 6D). The size of the cellular halo emanating from DRGs grown in the presence of test compounds was evaluated relative to untreated control and rated as described in Section 8.1.3, supra (Table 9).

[4] = test system: rat meningeal fibroblasts (RMF); test: Colorimetric cell adhesion assay, RMF; format: cell-based; details: RMF on PLL; 4 hr incubation; FIG. 7
Description: as §1
Microtiter plates were precoated with poly-L-lysine and blocked with 1% BSA in DMEM for 20 min prior to addition of cells. The cells were plated on the precoated 96-well plates and test compounds were added to the culture medium. Following 4-24 hr incubation at 36° C., 5% C02, in a humidified incubator, the tetrazolium salt MTT (3-(4,5-dimethylthazol-2-yl)-2,5-diphenyl tetrazolium bromide) was added. The cultures were incubated for 2 hr to allow mitochondrial succinate dehydrogenase, found in viable cells, to […] the MTT to its formazan blue reaction product. The media was aspirated and the wells were rinsed to remove all detached cells. The formazan blue reaction product in attached cells was solubilized with 0.08 N HCl in isopropanol, and the plates were read in a microtiter plate reader (Dynatech MR4000) at 570 nm with a 630 nm reference filter. The resulting optical density readings are directly related to the number of viable cells in the well (Mosmann, T., 1983, J. Immunol. Methods 65:55-63). The samples were run in 3-6 replicates per point and the SD was less than 5%.
The adhesion of fibroblasts to PLL-coated microtiter plates in the presence of test compounds in the culture medium was evaluated using an MTT assay as described in Section 8.1.5., supra, and the number of attached cells was expressed as percent of control. The effect of 4 hr incubation in the presence of heparin, pentosan polysulfate, dextran sulfate, and dextran on adhesion of rat meningeal fibroplasts (RMF) and 3T3 cells to PLL is shown in FIG. 7.

[5] = 0.1 mg/ml DS-PG + 20 μg/ml LN stripes
[6] = 0.2 mg/ml DS-PG + 20 μg/ml LN stripes
[7] = 0.4 mg/ml DS-PG + 20 μg/ml LN stripes
[8] = 0.8 mg/ml DS-PG + 20 μg/ml LN stripes
[9] = 0.5 μg/ml in culture medium, PLL substratum
[10] = 1 μg/ml in culture medium, PLL substratum
[11] = 1.25 μg/ml in culture medium, LN substratum
[12] = 1.25 μg/ml in culture medium, PLL substratum
[13] = 2 μg/ml in culture medium, PLL substratum
[14] = 10 μg/ml in culture medium, LN substratum
[15] = 10 μg/ml in culture medium, PLL substratum
[16] = 50 μg/ml in culture medium, LN substratum
[17] = 50 μg/ml in culture medium, PLL substratum
[18] = 200 μg/ml in culture medium, LN substratum
[19] = 200 μg/ml in culture medium, PLL substratum
[20] = 400 μg/ml in culture medium, LN substratum
[21] = 400 μg/ml in culture medium, PLL substratum
[22] = 2 μg/ml in culture medium, LN substratum
[23] = 0.25 mg/ml KS/CS-PG + LN stripes
[24] = 0.5 mg/ml KS/CS-PG + LN stripes
[25] = 1.0 mg/ml KS/CS-PG + LN stripes
[26] = 2.7 mg/ml KS/CS-PG + LN stripes

| Substance | Cellular Migration from DRG Explants, rating relative to untreated control [3, 9] | Cellular Migration from DRG Explants, rating relative to untreated control [3, 10] | Cellular Migration from DRG Explants, rating relative to untreated control [3, 11] | Cellular Migration from DRG Explants, rating relative to untreated control [3, 12] | Cellular Migration from DRG Explants, rating relative to untreated control [3, 13] | Cellular Migration from DRG Explants, rating relative to untreated control [3, 14] | Cellular Migration from DRG Explants, rating relative to untreated control [3, 15] | Cellular Migration from DRG Explants, rating relative to untreated control [3, 16] | Cellular Migration from DRG Explants, rating relative to untreated control [3, 17] | Cellular Migration from DRG Explants, rating relative to untreated control [3, 18] | Cellular Migration from DRG Explants, rating relative to untreated control [3, 19] | Cellular Migration from DRG Explants, rating relative to untreated control [3, 20] | Cellular Migration from DRG Explants, rating relative to untreated control [3, 21] | number of attached cells compared to untreated controls [4] | Cellular Migration from DRG Explants, rating relative to untreated control [3, 22] | other results |
| --- | --- | --- | --- | --- | --- | --- | --- | --- | --- | --- | --- | --- | --- | --- | --- | --- |
| Dermatan sulfate proteoglycan [DS-PG] |  |  |  |  |  |  |  |  |  |  |  |  |  |  |  | DS-PG Effect on Adhesion, Migration and Invasion [1, 5]: +; DS-PG Effect on Adhesion, Migration and Invasion [1, 6]: +/−; DS-PG Effect on Adhesion, Migration and Invasion [1, 7]: −; DS-PG Effect on Adhesion, Migration and Invasion [1, 8]: −; DS-PG Effect on Adhesion, Migration and Invasion [2, 5]: +; DS-PG Effect on Adhesion, Migration and Invasion [2, 6]: +/−; DS-PG Effect on Adhesion, Migration and Invasion [2, 7]: −; DS-PG Effect on Adhesion, Migration and Invasion [2, 8]: − |
| Heparin | 5 (5 = 80-100% of control) | 4 (4 = 60-79%) | 5 (5 = 80-100% of control) | 2 (2 = 20-39%) | 2 (2 = 20-39%) | 5 (5 = 80-100% of control) | 2 (2 = 20-39%) | 5 (5 = 80-100% of control) | 2 (2 = 20-39%) | 5 (5 = 80-100% of control) | 2 (2 = 20-39%) | 5 (5 = 80-100% of control) | 1 (1 = 0-19%) | decreased |  |  |
| dextran [reference compound] |  |  |  |  |  | 5 (5 = 80-100% of control) |  | 5 (5 = 80-100% of control) | 5 (5 = 80-100% of control) | 5 (5 = 80-100% of control) | 5 (5 = 80-100% of control) | 5 (5 = 80-100% of control) | 5 (5 = 80-100% of control) | slight increase | 5 (5 = 80-100% of control) |  |
| dextran sulfate | 5 (5 = 80-100% of control) | 3 (3 = 40-59%) | 5 (5 = 80-100% of control) | 2 (2 = 20-39%) | 1 (1 = 0-19%) | 1 (1 = 0-19%) | 1 (1 = 0-19%) | 1 (1 = 0-19%) | 1 (1 = 0-19%) | 1 (1 = 0-19%) | 1 (1 = 0-19%) | 1 (1 = 0-19%) | 1 (1 = 0-19%) | decreased | 3 (3 = 40-59%) |  |
| keratan sulfate/chrondroitin sulfate-proteoglycans [KS/CS-PG] |  |  |  |  |  |  |  |  |  |  |  |  |  |  |  | Effect of KS/CS-PG on Cell Migration ([1]; 0.12 mg/ml KS/CS-PG + LN stripes): +; Effect of KS/CS-PG on Cell Migration [1, 23]: +/−; Effect of KS/CS-PG on Cell Migration [1, 24]: +/−; Effect of KS/CS-PG on Cell Migration [1, 25]: +/−; Effect of KS/CS-PG on Cell Migration [1, 26]: −; Effect of KS/CS-PG on Cell Migration [2, 23]: +; Effect of KS/CS-PG on Cell Migration [2, 24]: −; Effect of KS/CS-PG on Cell Migration [2, 25]: −; Effect of KS/CS-PG on Cell Migration [2, 26]: − |
